{
  "source": "patent US5122448A",
  "about": "“Assay of anti-Epstein-Barr virus nuclear antigen antibodies with synthetic polypeptides” (Scripps Clinic and Research Foundation, priority 1990, dated 1992)",
  "key": {"[1]": {"target": "human anti-EBNA antibodies", "assay": "ELISA: inhibition of serum antibody binding to solid phase P62 by competing polypeptide in solution", "protocol": "(§1) Anti-peptide antibody binding and inhibition studies were carried out by an enzyme-linked immunosorbent assay (ELISA) as described below.\n(§2) Contact between the wells and antigen-containing solution was maintained for a predetermined time, typically 15 minutes, and at 20 degrees C., to form an antigen-coated solid phase. The solid and liquid phases were separated and the wells were washed three times with BBS.\n(§3) Rabbit and human sera (body sample aliquots) were assayed for anti-polypeptide activity by adding 100 microliters of a serum diluted 1:20 in BBS per well to form a solid/liquid phase composition. Contact between the diluted sera and the antigen-coated solid phase was maintained for a predetermined time such as 1 hour, and at 20 degrees C., for an immunoreactant to form. The solid and liquid phases were separated, and the solid phase; i.e., antigen-coated, immunoreactant-containing wells, was then washed three times with BBS."}, "[2]": {"tested_on": "anti-EBNA antibodies", "assay": "ELISA with polypeptide as solid phase antigen, anti-polypeptide activity of sera (OD405)", "type": "binding, human", "details": "for OD405 × 10^3 obtained with Patient Antibodies to peptide: serum 1:20", "experimental": "(§4) Briefly, microtiter wells (Costar, #3590, Cambridge, MA) were typically coated with individual polypeptides as antigens by adding 100 microliters (ul) of BBS [10 millimoler (mM) sodium borate (pH 8.3), 150 mM NaCl] containing polypeptide at a concentration of 10 micrograms per milliliter (ug/ml). Contact between the wells and antigen-containing solution was maintained for a predetermined time, typically 15 minutes, and at 20 degrees C., to form an antigen-coated solid phase. The solid and liquid phases were separated and the wells were washed three times with BBS.\n(§5) Non-specific binding sites were blocked by admixing 200 microliters of 1% bovine serum albumin (BSA) in each well to form another solid/liquid phase admixture, and maintaining that solid/liquid phase admixture for 30 minutes, at 20 degrees C. The phases were separated and excess, unbound BSA was removed by washing three times with BBS.\n(§6) The antibodies in human sera that immunoreacted with an adsored polypeptide were detected using an indicating means comprising alkaline phosphatase-conjugated goat anti-human Ig antibody (Tago, Burlington, Calif.). The antibodies in rabbit sera that immunoreacted with an adsorbed polypeptide were detected using an indicating means comprising alkaline phosphatase-conjugated goat anti-rabbit Ig antibody (Kirkegard & Perry Laboratories, Inc., Gaithersburg, MD). In either instance, 100 microliters of the indicating antibody diluted 1:300 in BBS were added per well to form a further solid/liquid phase composition. This solid-liquid phase composition was maintained for a predetermined time, one hour, for the formation of a reaction product between the human antibodies bound to the solid phase and the indicating means, and at 20 degrees C. The phases were separated, and the solid phase was washed 3 times with BBS.\n(§7) Alkaline phosphatase-conjugated antibody bound to polypeptide specific antibody was detected by spectrophotometrically measuring the enzymatic hydrolysis of p-nitrophenyl phosphate to p-nitrophenol. Briefly, 100 microliters of p-nitrophenyl phosphate [1 milligram per milliliter in 2 mM MgCl 2, (pH 9.8), 50 mM sodium carbonate] were added to each well. The enzymatic reaction was allowed to proceed 1 hour and then the optical density at 405 nm was determined in a [sequence] spectrophotometer available from Flow Laboratories, Inglewood, Calif."}, "[3]": {"tested_on": "rabbit anti-polypeptide antibody to polypeptide P62", "assay": "Competition ELISA with rabbit anti-polypeptide P62 antibody on solid phase P62", "type": "binding", "details": "antibody first incubated with competing polypeptide", "protocol": "as §1, §2, §3"}, "[4]": {"tested_on": "IgM and IgG antibodies to EBNA-1 and cellular proteins of Wi-L2 cells", "protocol": "In an alternative procedure, the cellular protein-containing extracts were loaded onto one 13-cm-wide slot of a 7.5 percent acrylamide gel and electrophoresed. The contents of the electrophoresed gel were transferred to nitrocellulose as previously described [Billings et al., Proc. Natl. Acad. Sci. USA, 80:7104-7108 (1983); Rumpold et al., J. Immunol., 138:593-599 (1987); Rhodes et al., J. Exp. Med., 165:1026-1040 (1987)]. Sera were diluted 1:20 or 1:50 in a powdered milk (PM) buffer (3 percent powered milk in 0.05 M borate, 0.15 M NaCl, pH 8.3), and contacted with the strip for 1 hour at room temperature to immunoreact antibodies in the sera with the proteins.\n128:593-599 (1987); Rhodes et al., in Herpesvirus, R. Rapp ed., Alan R. Liss, New York; p. […] 154:885-889 (1986); Geltosky et al., J. Clin. Lab Analysis, 1:153-162 (1987); and Rhodes et al., J. Exp. Med., 165:1026-1040 (1987)] and bands were detected by autoradiography as described before.\nSynthetic peptide inhibitions were performed by diluting the sera 1:50 in PM and adding free peptide to a final concentration of 400 ug/ml to inhibit IgM antibody and 20 to 50 ug/ml to inhibit IgG antibody. This solution was maintained (incubated) overnight at 4 degrees C. and then used to blot as described above."}, "[5]": {"tested_on": "anti-EBNA antibodies (IgM, IgG)", "details": "405 nanometer", "text": "To differentiate the class of immunoglobulin predominantly responsible for an individual's immune response at a given time during the course of infectious mononucleosis, secondary (indicating) antibodies specific for human IgG or IgM were used in the ELISA as described in the Methods and Materials section (III).\nas §4, §5, §6, §7"}, "[6]": {"tested_on": "antibodies to EBNA-1 and autoantigens", "details": "cited from earlier work"}, "[7]": {"details": "Patient 15, 1 Month after infection"}, "[8]": {"details": "Patient 15, 1 Week after infection"}, "[9]": {"details": "Patient 15, 3 Months after infection"}, "[10]": {"details": "Patient 15, 12 Months after infection"}, "[11]": {"details": "Patient 15, 21 Months after infection"}, "[12]": {"details": "Patient three, 1 Month after infection"}, "[13]": {"details": "Patient three, 1 Week after infection"}, "[14]": {"details": "Patient three, 3 Months after infection"}, "[15]": {"details": "Patient three, 21 Months after infection"}},
  "note": "Read-outs that look alike come from different tables or passages of the source. Residues, ends and D or L forms follow the SMILES beside them.",
  "data": [
    {"compound": "C[C@H](N)C(=O)NCC(=O)N[C@@H](C)C(=O)NCC(=O)NCC(=O)NCC(=O)N[C@@H](C)C(=O)NCC(=O)NCC(=O)N[C@@H](C)C(=O)NCC(=O)N[C@@H](C)C(=O)NCC(=O)NCC(=O)NCC(=O)N[C@@H](C)C(=O)NCC(=O)NCC(=O)N[C@@H](C)C(=O)NCC(=O)O", "note": "[Polypeptide P62, H--Ala--Gly--Ala--Gly--Gly--Gly--Ala--Gly--Gly--Ala--Gly--Ala--Gly--Gly--Gly--Ala--Gly--Gly--Ala--Gly--OH] (H-AGAGGGAGGAGAGGGAGGAG-OH)", "values": [
      {"measurement": "Concentration of Competing Polypeptides Providing 50% Inhibition of Antibody Binding to Peptide P62", "setting": "[1]; serum N6", "result": 0.6, "unit": "micrograms per milliliter"},
      {"measurement": "Concentration of Competing Polypeptides Providing 50% Inhibition of Antibody Binding to Peptide P62", "setting": "[1]; serum TJ", "result": 0.05, "unit": "micrograms per milliliter"},
      {"measurement": "Concentration of Competing Polypeptides Providing 50% Inhibition of Antibody Binding to Peptide P62", "setting": "[1]; serum VM", "result": 0.3, "unit": "micrograms per milliliter"},
      {"measurement": "Reactivity of sera of EBV non-immune donors to polypeptide", "setting": "[2]; 27 EBV non-immune (VCA-) donors", "result": "None of the sera displayed significant reactivity"},
      {"measurement": "Number of anti-EBNA positive sera positive against (bound to) polypeptide", "setting": "[2]; 91 ACIF anti-EBNA positive sera, 1:20 dilution", "result": 91},
      {"measurement": "Number of EBNA positive sera that immunoreacted with polypeptide", "setting": "[2]; 91 EBNA positive sera, dilution 1:320", "result": 83},
      {"measurement": "Titer of PSS patients versus normals", "setting": "[2]; Progressive Systemic Schlerosis patients", "result": "relatively higher average titer"},
      {"measurement": "Reaction of VCA+ sera with polypeptide", "setting": "[2]; clinically normal VCA+ individuals, two dilutions", "result": "all of the VCA^+ individuals were positive"},
      {"measurement": "Reaction of VCA- sera with polypeptide", "setting": "[2]; panel of 19 VCA- sera", "result": "None of the VCA^- sera were found to react positively"},
      {"measurement": "OD405 × 10^3 obtained with Patient Antibodies to peptide", "setting": "[2]; MV post-mononucleosis", "result": 631, "unit": "OD405 × 10^3"},
      {"measurement": "OD405 × 10^3 obtained with Patient Antibodies to peptide", "setting": "[2]; MV pre-mononucleosis", "result": 77, "unit": "OD405 × 10^3"},
      {"measurement": "OD405 × 10^3 obtained with Patient Antibodies to peptide", "setting": "[2]; SB post-mononucleosis", "result": 514, "unit": "OD405 × 10^3"},
      {"measurement": "OD405 × 10^3 obtained with Patient Antibodies to peptide", "setting": "[2]; SB pre-mononucleosis", "result": 13, "unit": "OD405 × 10^3"},
      {"measurement": "OD405 × 10^3 obtained with Patient Antibodies to peptide", "setting": "[2]; VCA+ Normal 1", "result": 958, "unit": "OD405 × 10^3"},
      {"measurement": "OD405 × 10^3 obtained with Patient Antibodies to peptide", "setting": "[2]; VCA+ Normal 2", "result": 819, "unit": "OD405 × 10^3"},
      {"measurement": "Inhibition of binding of anti-polypeptide P62 to polypeptide P62 in the solid phase", "setting": "[3]", "result": 98, "unit": "%"},
      {"measurement": "Inhibition of IgM antibody binding to protein bands", "setting": "[4]; acute EBV-IM sera 1:50, 400 ug/ml peptide", "result": "inhibited IgM antibody binding to several protein bands"},
      {"measurement": "Inhibition of IgG binding to EBNA-1 band at 77 kD", "setting": "[4]; convalescent and normal sera, 50 ug/ml peptide", "result": "inhibited by the peptide in all cases"},
      {"measurement": "Inhibition of IgM reactivities with 82-77 kD and 58 to 62 kD bands", "setting": "[4]; patient four. 12 days after onset of CMV illness, 400 ug/ml peptide", "result": "inhibited"},
      {"measurement": "IgG antipeptide activity", "setting": "[5]; [7]", "result": 118, "unit": "Optical density"},
      {"measurement": "IgM antipeptide activity", "setting": "[5]; [7]", "result": 225, "unit": "Optical density"},
      {"measurement": "IgG antipeptide activity", "setting": "[5]; [8]", "result": 113, "unit": "Optical density"},
      {"measurement": "IgM antipeptide activity", "setting": "[5]; [8]", "result": 152, "unit": "Optical density"},
      {"measurement": "IgG antipeptide activity", "setting": "[5]; [9]", "result": 118, "unit": "Optical density"},
      {"measurement": "IgM antipeptide activity", "setting": "[5]; [9]", "result": 208, "unit": "Optical density"},
      {"measurement": "IgG antipeptide activity", "setting": "[5]; [10]", "result": 375, "unit": "Optical density"},
      {"measurement": "IgM antipeptide activity", "setting": "[5]; [10]", "result": 249, "unit": "Optical density"},
      {"measurement": "IgG antipeptide activity", "setting": "[5]; [11]", "result": 994, "unit": "Optical density"},
      {"measurement": "IgM antipeptide activity", "setting": "[5]; [11]", "result": 185, "unit": "Optical density"},
      {"measurement": "IgG antipeptide activity", "setting": "[5]; [12]", "result": 37, "unit": "Optical density"},
      {"measurement": "IgM antipeptide activity", "setting": "[5]; [12]", "result": 87, "unit": "Optical density"},
      {"measurement": "IgG antipeptide activity", "setting": "[5]; [13]", "result": 80, "unit": "Optical density"},
      {"measurement": "IgM antipeptide activity", "setting": "[5]; [13]", "result": 245, "unit": "Optical density"},
      {"measurement": "IgG antipeptide activity", "setting": "[5]; [14]", "result": 60, "unit": "Optical density"},
      {"measurement": "IgM antipeptide activity", "setting": "[5]; [14]", "result": 136, "unit": "Optical density"},
      {"measurement": "IgG antipeptide activity", "setting": "[5]; [15]", "result": 600, "unit": "Optical density"},
      {"measurement": "IgM antipeptide activity", "setting": "[5]; [15]", "result": 145, "unit": "Optical density"},
      {"measurement": "IgG antipeptide activity", "setting": "[5]; Patient three, Pre Infection", "result": 74, "unit": "Optical density"},
      {"measurement": "IgM antipeptide activity", "setting": "[5]; Patient three, Pre Infection", "result": 103, "unit": "Optical density"},
      {"measurement": "Immunoreactivity with sera from patients with acute EBV infection", "setting": "[6]", "result": "most immunoreactive"},
      {"measurement": "Inhibition of IgG antibodies to EBNA-1", "setting": "[6]", "result": "can also be inhibited"}
    ]}
  ]
}
